Assay results as given in ChEMBL document CHEMBL5465560, “Selectivity Literature for EUbOPEN Chemogenomic Library” (2024).

Columns and labels:
[1] = biological target: Mitogen-activated protein kinase 10 (Homo sapiens, UniProt P53779); assay: Selectivity interaction (Kinase panel (DSF assay)) EUB0001558a MAPK10
[2] = biological target: LIM domain kinase 1 (Homo sapiens) (UniProt P53667); assay: Selectivity interaction (Upstate Kinase Profiler service (Millipore)) EUB0000056c LIMK1; details: at 1 µM
Chain of LIM domain kinase 1 (Homo sapiens) (P53667 whole entry, looked up, the tested form may be a part): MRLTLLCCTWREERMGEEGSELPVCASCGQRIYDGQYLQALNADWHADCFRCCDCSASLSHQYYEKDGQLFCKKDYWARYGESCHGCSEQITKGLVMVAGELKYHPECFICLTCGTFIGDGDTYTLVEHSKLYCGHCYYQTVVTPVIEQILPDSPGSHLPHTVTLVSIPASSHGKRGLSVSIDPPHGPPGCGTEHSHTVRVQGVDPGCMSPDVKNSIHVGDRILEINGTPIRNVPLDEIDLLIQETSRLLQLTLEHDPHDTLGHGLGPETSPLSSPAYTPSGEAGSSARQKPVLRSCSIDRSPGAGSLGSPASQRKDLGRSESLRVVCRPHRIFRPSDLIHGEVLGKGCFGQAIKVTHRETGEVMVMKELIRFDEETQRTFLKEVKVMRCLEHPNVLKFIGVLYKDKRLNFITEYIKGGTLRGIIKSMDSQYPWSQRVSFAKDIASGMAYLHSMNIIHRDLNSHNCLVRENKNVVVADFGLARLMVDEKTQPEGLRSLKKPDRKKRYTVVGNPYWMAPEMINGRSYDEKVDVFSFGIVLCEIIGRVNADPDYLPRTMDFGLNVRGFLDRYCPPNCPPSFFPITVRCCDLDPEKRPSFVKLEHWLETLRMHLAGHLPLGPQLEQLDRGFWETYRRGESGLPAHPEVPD

[3] = biological target: T1, Dual specificity tyrosine-phosphorylation-regulated kinase 2 (Homo sapiens) (UniProt Q92630); assay: Selectivity interaction (KinomeScan (DiscoverX)) EUB0001079a DYRK2; details: at 1 µM
T1 sequence (whole entry): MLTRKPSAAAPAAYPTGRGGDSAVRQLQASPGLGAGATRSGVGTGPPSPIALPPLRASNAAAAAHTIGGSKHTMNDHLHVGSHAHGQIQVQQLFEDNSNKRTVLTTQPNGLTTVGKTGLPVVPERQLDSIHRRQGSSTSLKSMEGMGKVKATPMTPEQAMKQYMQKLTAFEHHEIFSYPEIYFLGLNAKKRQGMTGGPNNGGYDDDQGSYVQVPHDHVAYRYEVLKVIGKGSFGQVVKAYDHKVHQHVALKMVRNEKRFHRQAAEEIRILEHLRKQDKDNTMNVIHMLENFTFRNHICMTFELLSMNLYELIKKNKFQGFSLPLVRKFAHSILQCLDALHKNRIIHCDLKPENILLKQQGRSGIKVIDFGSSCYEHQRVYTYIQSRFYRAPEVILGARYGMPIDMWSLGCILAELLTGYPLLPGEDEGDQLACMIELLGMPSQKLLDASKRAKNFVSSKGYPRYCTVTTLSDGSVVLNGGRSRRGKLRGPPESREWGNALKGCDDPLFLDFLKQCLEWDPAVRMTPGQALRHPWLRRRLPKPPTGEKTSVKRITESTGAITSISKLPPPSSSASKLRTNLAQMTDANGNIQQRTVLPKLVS

[4] = biological target: Ribosomal protein S6 kinase alpha-1 (Homo sapiens, UniProt Q15418); assay: Selectivity interaction (Kinase panel (KiNativ target engagement assay in Jurkat cells)) EUB0001635a RPS6KA1; format: cell-based; details: Selectivity number of off-targets 0.0, Selectivity number of targets 233.0, Source Knowledge https://www.sciencedirect.com/science/article/pii/S2451945619300674?via%3Dihub, at 1 µM
Chain of Ribosomal protein S6 kinase alpha-1 (Q15418 whole entry): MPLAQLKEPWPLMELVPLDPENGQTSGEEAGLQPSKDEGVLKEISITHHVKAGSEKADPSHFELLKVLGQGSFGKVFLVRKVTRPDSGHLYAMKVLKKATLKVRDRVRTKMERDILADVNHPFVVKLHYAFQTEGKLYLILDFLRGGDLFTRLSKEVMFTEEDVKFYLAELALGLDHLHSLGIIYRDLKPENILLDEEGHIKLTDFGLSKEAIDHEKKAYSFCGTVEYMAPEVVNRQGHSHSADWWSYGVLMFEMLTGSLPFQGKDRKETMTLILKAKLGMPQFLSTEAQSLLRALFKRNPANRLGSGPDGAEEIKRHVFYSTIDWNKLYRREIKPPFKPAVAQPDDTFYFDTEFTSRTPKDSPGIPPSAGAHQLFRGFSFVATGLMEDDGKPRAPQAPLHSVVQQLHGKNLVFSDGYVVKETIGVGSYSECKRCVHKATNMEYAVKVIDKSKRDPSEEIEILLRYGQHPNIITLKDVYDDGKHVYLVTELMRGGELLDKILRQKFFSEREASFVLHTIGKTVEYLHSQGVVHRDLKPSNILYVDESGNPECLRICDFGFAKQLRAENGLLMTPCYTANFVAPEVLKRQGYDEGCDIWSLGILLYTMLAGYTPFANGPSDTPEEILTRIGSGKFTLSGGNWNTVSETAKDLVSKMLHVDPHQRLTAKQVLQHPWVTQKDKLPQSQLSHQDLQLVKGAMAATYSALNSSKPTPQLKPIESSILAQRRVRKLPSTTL

[5] = biological target: T2, Serine/threonine-protein kinase Nek2 (Homo sapiens) (UniProt P51955); assay: Selectivity interaction (KinomeScan (DiscoverX)) EUB0000666a NEK2; details: at 10 µM
T2 sequence (whole entry): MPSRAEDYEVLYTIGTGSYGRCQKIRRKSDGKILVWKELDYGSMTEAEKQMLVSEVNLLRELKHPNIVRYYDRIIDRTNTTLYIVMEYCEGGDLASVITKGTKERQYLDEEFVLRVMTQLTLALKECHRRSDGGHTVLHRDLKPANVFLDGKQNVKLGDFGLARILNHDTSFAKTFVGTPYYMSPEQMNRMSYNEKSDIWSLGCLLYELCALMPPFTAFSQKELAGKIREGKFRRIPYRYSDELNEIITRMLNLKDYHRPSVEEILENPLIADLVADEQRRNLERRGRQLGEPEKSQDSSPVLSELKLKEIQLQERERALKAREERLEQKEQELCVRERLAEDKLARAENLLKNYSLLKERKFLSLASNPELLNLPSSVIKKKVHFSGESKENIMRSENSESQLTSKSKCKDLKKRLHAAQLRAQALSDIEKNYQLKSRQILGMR

[6] = biological target: Casein kinase I isoform epsilon (Homo sapiens, UniProt P49674); assay: Selectivity interaction (KinomeScan (DiscoverX)) EUB0000666a CSNK1E; details: at 10 µM
Chain of Casein kinase I isoform epsilon (P49674 whole entry, looked up, canonical isoform): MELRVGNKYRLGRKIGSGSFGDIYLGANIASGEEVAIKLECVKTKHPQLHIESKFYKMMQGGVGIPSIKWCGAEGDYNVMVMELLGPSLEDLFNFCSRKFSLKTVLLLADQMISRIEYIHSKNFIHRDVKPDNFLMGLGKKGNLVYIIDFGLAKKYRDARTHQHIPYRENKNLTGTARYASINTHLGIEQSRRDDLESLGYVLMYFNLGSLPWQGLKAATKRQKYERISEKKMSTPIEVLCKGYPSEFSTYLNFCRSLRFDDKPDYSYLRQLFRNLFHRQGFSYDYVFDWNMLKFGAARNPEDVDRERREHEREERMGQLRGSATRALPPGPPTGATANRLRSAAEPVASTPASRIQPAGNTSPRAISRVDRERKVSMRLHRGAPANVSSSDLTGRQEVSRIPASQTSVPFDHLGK

[7] = biological target: Cyclin-dependent kinase 14 (Homo sapiens) (UniProt O94921); assay: Selectivity interaction (KinomeScan (DiscoverX)) EUB0000607a CDK14; details: at 10 µM
Chain of Cyclin-dependent kinase 14 (Homo sapiens) (O94921 whole entry): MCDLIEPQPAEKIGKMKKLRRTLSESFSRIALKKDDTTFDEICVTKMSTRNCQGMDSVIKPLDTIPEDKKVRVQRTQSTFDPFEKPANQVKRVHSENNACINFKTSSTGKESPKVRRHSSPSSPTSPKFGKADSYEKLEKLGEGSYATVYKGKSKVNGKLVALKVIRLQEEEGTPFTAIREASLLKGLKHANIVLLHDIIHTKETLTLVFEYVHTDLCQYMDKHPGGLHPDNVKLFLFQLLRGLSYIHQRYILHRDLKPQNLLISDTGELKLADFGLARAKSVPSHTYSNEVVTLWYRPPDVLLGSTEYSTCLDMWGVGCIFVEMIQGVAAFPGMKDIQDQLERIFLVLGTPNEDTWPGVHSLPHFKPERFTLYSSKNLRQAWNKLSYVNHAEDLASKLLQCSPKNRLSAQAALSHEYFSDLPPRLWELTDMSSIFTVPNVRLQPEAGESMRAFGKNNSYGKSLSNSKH

[8] = biological target: Angiopoietin-1 receptor (Homo sapiens) (UniProt Q02763); assay: Selectivity interaction (Kinase panel (literature)) EUB0001199aCl TEK; details: at 1 µM
Chain of Angiopoietin-1 receptor (Homo sapiens) (Q02763 whole entry): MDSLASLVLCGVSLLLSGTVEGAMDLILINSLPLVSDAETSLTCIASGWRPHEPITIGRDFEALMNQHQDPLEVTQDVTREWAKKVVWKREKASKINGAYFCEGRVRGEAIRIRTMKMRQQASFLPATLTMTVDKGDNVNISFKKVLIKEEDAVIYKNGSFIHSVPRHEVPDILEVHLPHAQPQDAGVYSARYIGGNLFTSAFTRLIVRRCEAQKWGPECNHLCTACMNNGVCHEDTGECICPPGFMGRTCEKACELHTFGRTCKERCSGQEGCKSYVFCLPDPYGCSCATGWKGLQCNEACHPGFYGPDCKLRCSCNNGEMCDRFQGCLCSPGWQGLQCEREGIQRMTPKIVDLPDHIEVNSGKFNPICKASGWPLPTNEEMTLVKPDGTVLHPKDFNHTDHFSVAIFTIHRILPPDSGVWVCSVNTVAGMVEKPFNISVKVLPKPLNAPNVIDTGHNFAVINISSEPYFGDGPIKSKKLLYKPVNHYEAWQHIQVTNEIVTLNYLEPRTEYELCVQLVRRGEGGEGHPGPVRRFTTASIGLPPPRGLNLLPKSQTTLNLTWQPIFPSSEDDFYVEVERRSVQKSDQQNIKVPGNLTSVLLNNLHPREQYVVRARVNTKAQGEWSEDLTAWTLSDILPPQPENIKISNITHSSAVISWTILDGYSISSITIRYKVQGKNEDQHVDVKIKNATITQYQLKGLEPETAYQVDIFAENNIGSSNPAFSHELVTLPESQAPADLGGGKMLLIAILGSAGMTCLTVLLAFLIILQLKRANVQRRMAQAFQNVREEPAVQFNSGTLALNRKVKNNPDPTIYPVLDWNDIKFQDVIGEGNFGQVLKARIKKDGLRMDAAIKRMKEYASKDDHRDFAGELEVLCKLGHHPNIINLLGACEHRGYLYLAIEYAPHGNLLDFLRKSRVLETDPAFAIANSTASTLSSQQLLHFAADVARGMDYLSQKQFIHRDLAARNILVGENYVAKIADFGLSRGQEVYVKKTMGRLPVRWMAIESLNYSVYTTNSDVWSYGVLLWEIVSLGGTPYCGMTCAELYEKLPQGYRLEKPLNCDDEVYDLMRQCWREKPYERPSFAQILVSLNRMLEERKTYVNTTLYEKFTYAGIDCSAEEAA

[9] = biological target: T3, MAP/microtubule affinity-regulating kinase 4 (Homo sapiens) (UniProt Q96L34); assay: Selectivity interaction (Ambit KINOMEscan and KiNATiv profiling in Jurkat cells) EUB0000090b MARK4; format: cell-based; details: at 1 µM
T3 sequence (whole entry): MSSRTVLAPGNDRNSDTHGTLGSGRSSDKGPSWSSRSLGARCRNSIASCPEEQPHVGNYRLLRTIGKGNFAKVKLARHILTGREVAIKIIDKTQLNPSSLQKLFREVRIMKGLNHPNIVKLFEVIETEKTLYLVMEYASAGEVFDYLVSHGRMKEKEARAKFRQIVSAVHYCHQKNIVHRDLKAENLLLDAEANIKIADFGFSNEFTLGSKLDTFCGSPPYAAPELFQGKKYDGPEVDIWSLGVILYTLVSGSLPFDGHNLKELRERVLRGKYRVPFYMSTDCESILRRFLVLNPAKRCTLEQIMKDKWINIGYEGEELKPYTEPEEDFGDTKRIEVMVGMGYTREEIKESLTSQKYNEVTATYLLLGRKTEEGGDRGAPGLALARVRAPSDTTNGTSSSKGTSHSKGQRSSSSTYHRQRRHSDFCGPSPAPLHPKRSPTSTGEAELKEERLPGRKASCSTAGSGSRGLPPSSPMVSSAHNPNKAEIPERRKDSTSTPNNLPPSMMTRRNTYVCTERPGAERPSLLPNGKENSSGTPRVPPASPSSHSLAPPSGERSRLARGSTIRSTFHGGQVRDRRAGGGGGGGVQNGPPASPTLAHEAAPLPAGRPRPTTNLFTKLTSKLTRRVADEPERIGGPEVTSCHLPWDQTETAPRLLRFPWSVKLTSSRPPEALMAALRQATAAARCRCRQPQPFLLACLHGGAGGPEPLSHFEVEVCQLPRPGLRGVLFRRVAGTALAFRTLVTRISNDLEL

[10] = biological target: Cyclin-dependent kinase 11B (Homo sapiens) (UniProt P21127); assay: Selectivity interaction (KinomeScan (DiscoverX)) EUB0001619a CDK11B; details: at 1 µM
Chain of Cyclin-dependent kinase 11B (Homo sapiens) (P21127 whole entry): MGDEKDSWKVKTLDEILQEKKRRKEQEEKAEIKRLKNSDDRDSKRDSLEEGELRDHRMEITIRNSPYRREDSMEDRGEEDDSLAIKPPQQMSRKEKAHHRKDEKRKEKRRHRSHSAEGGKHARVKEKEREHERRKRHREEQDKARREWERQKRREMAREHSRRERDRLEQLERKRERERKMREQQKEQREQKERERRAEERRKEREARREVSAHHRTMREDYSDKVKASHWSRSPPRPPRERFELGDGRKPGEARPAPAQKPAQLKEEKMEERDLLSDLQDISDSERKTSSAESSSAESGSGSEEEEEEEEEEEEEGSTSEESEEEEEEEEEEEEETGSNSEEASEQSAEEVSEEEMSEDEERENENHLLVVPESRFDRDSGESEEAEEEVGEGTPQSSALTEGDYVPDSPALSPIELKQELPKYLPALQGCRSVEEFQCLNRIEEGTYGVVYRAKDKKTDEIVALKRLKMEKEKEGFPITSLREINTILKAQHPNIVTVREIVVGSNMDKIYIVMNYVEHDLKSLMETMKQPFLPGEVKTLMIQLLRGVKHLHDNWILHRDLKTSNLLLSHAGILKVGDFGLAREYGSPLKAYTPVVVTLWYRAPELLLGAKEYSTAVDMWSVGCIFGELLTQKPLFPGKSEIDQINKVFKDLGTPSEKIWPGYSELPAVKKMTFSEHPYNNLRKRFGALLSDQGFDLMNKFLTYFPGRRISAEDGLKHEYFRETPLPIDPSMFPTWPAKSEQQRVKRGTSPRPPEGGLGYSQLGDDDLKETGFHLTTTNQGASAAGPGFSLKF

Chain of Mitogen-activated protein kinase 10 (P53779 whole entry, the tested form may be a part): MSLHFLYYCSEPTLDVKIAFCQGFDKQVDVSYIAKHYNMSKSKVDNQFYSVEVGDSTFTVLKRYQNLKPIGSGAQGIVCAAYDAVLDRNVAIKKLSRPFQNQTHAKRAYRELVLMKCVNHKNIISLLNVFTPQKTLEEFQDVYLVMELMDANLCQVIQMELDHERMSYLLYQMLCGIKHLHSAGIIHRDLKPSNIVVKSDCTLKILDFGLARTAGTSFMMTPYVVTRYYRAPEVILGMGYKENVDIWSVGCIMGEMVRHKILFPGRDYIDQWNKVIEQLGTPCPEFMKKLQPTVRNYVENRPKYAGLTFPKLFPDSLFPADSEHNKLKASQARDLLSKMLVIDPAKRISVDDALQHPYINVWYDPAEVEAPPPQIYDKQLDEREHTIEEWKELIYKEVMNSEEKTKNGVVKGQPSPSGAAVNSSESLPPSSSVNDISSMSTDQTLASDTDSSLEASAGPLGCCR

Compound: CC(C)(O)[C@H](F)CN1Cc2cc(NC(=O)c3cnn4cccnc34)c(N3CCOCC3)cc2C1=O
- dTM [1]: 1.5 K

Compound: Cc1ccc(-c2ccc3c(ccc4sc5c(c43)NC[C@@H](C)NC5=O)n2)cn1
- % of inhibition [2]: 4%

Compound: Nc1cnc(N2CCc3cc(S(=O)(=O)Nc4c(F)cc(Cl)cc4F)cc(N4CCCC4=O)c32)nc1 [TP-020n]
- % of control [3]: 89%

Compound: C=CC(=O)Nc1ccc(C(=O)Nc2[nH]nc3c2CN(C(=O)N[C@H](CN(C)C)c2ccccc2)C3(C)C)cc1
- % of engagement [4]: 1.2%

Compound: O=C(NOC[C@H](O)CO)c1ccc(F)c(F)c1Nc1ccc(I)cc1F
- % of control [5]: 70%
- % of control [6]: 100%

Compound: CNC(=O)Nc1ccc(-c2nc(N3CC4CCC(C3)O4)c3cnn(C4CCC5(CC4)OCCO5)c3n2)cc1
- % of control [7]: 94%

Compound: CN1Cc2nccc(-c3cn(C)nc3-c3ccc(F)cc3)c2C1=O
- % of inhibition [8]: 1%

Compound: CN(C)C/C=C/C(=O)Nc1ccc(C(=O)N2CCCC(Nc3ncc(Cl)c(-c4c[nH]c5ccccc45)n3)C2)cc1 (stereo not given)
- % of control [9]: 100%

Compound: N#Cc1cccc(-c2c[nH]c3ncnc(N4CCOCC4)c23)c1
- % of control [10]: 100%
